Laboratory results from ChEMBL document CHEMBL1152070, “-cyano-substituted analogoues of decarboxylated S-adenosylmethionine as enzyme activated, irreversible inhibitors of S-adenosylmethionine decarboxylase” (Bioorg Med Chem Lett, 1993).

Columns and labels:
[1] = target: T1, S-adenosylmethionine decarboxylase proenzyme (Homo sapiens) (UniProt P17707); assay: Compound was evaluated for Enzyme kinetic inactivation constant: Kinact for S-Adenosyl-methionine decarboxylase (AdoMet-DC) enzyme
T1 sequence (whole entry): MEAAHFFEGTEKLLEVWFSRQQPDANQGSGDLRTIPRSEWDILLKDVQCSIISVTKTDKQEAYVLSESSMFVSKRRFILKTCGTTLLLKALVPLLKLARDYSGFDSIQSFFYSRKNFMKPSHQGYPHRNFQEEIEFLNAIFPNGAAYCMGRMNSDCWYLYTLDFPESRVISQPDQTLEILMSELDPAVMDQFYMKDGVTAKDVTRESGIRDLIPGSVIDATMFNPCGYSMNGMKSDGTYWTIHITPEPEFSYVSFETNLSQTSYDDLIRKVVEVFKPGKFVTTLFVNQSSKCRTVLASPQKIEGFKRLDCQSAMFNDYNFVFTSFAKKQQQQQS

[2] = target: T2, S-adenosylmethionine decarboxylase proenzyme (Homo sapiens, UniProt P17707); assay: Compound was evaluated to inactivate the human AdoMet-DC
T2 sequence (P17707 whole entry): T1 sequence (whole entry)

**Q.** With `C[S+](CCCC(N)C#N)C[C@H]1O[C@@H](n2cnc3c(N)ncnc32)[C@H](O)[C@@H]1O` (stereo not given in full) as the compound, how does the K inact [1] read?
**A.** 0.03 min⁻¹

**Q.** And the Ki [2]?
**A.** 7.2 µM

**Q.** With `C[S+](CCC(N)C#N)C[C@H]1O[C@@H](n2cnc3c(N)ncnc32)[C@H](O)[C@@H]1O` (stereo not given in full) as the compound, how does the K inact [1] read?
**A.** 0.29 min⁻¹

**Q.** What about the K inact ([1]; Escherichia coli) of the same compound?
**A.** 0.06 min⁻¹

**Q.** What about the Ki [2] of the same compound?
**A.** 247 µM
